Measured values as given in US9550767B2, “Crystalline form of (R)-7-chloro-N-(quinuclidin-3-yl)benzo[b]thiophene-2-carboxamide hydrochloride monohydrate” (Forum Pharmaceuticals, Inc., priority 2010, dated 2017).
Where a name gives a salt, the structure may show the parent alone. Read-outs that look alike come from different tables or passages of the source.

Legend:
Type in all cases: physicochemical
[1] = Solubility in water (shaking 20 minutes, HPLC UV 210 nm); conditions: for solubility at 20 min: thermodynamic from solid; for Solubility in water: hydrochloride monohydrate
Method: Excess amount of the samples, Forms I and II, were suspended in water, and were equilibrated by shaking for 20 minutes at 25° C. or 37° C., respectively. The amounts of dissolved the compound were determined using a Waters alliance HPLC system 2695, detected by UV 210 nm.

[2] = Stability under physical stress (compression with planar pestle, XRD); conditions: 1000 kgf/cm^2
Text: (§1) The crystalline Forms I and II are very stable in many aspects. Both forms are stable under storage conditions. […] Both forms are also stable under physical stress. The XRD charts of both forms were not changed after compression experiments with a planar pestle (1000 kgf/cm^2).

[3] = Stability under photo storage conditions; conditions: light (D65 lamp) of 1.2 million Lux hours at 25° C.
Text: as §1

[4] = Transformation behavior in 97 v/v % aqueous acetonitrile (XRPD)
Method: Form X crystals and 97 v/v % aqueous acetonitrile were added to a glass vessel. The mixture was stirred with Teflon-coated magnetic stirrer bar at the temperature controlled with aluminum block. Solid component was sampled periodically and analyzed by XRPD to determine the crystal form.

Hygroscopicity (DVS-1) = conditions: between 10% RH and 90% RH at 25° C.; for Hygroscopicity: hydrochloride monohydrate
Method: The hygroscopicity of Forms I and II were investigated using a Surface measurement systems, DVS-1, between 10% RH and 90% RH at 25° C.

[5] = Stability under storage conditions (temperature/humidity); conditions: 11% RH at 40° C., 75% RH at 40° C., 11% RH at 60° C. and 75% RH at 60° C. after 2 weeks
Text: as §1

[6] = Crystallization behavior in 98 v/v % aqueous acetonitrile (XRPD); conditions: seeded experiments
Method: Form I crystals were added to 98 v/v % aqueous acetonitrile in a glass vessel. Next, 98 v/v % aqueous acetonitrile was added to make the mixture 40 v/w times relative to the Form I crystal. The mixture was stirred with Teflon-coated magnetic stirrer bar and heated to 80° C. with aluminum block. After the crystals were dissolved, the mixture was cooled to a determined temperature at the rate of 30° C. per hour. After a determined holding time, Form I crystals were added as seed crystals according to object of an experiment. Precipitates were sampled periodically and analyzed by XRPD.

[7] = Solubility measurements of Forms I and II in aqueous acetonitrile (HPLC, equilibrium plateau); conditions: for solubility: aqueous acetonitrile; for Thermodynamic relationship between forms I and II crystals: based on solubility measurements in aqueous acetonitrile
Method: Solubility of Forms I and II was measured at various temperatures between 5° C. and 45° C. in aqueous acetonitrile in which water concentration was from 0 to 10 v/v % respectively.
Solubility was measured according to the following procedure. Form I or II crystals and an aqueous acetonitrile were added to a glass vessel. The mixture was stirred with a Teflon-coated magnetic stirrer bar at a defined temperature controlled with aluminum block. The liquid phase was sampled periodically, and the concentration of the compound was measured with high performance liquid chromatography (HPLC). Solid material was also collected at the same time to identify the crystal form using XRPD. In analyzing the time course of the change in concentration, that plateau zone was identified as an equilibrium condition, and the mean value of these concentrations was defined as “solubility” under that condition.

[8] = Transformation behavior in 98 v/v % aqueous acetonitrile (seeded slurry, XRPD)
Method: Form I crystals and 40 v/w times volume of 98 v/v % aqueous acetonitrile were added to a glass vessel. The mixture was stirred with Teflon-coated magnetic stirrer bar and heated to 80° C. with aluminum block. After dissolved, solution was cooled to 5° C. at the rate of 30° C. per hour. To the slurry of Form X, 10 w/w % of Form I crystals were added as seed crystals at 5° C., then controlled to a certain temperature. Samples of solid material were analyzed by XRPD on a periodic basis.

Q: Which results are given for `O=C(N[C@H]1CN2CCC1CC2)c1cc2cccc(Cl)c2s1` [Form I, (R)-7-chloro-N-(quinuclidin-3-yl)benzo[b]thiophene-2-carboxamide hydrochloride monohydrate]?
A: solubility at 20 min ([1]; 25 °C): 39 mg/mL; solubility at 20 min ([1]; 37 °C): 90 mg/mL; XRD chart after compression [2]: not changed; Degradation products under photo storage conditions [3]: no degradation products; Relative stability of Form I versus Form X [4]: more stable than Form X regardless of temperature; Hygroscopicity (Hygroscopicity (DVS-1)): no hygroscopicity; Degradation products under storage conditions [5]: No degradation products; Relative stability of Form I versus Form X [6]: more stable than Form X regardless of temperature; solubility ([7]; 5 °C, organic solvent or mixture, thermodynamic from solid, water concentration 0 v/v %, 5 °C, read-out: Solubility): 1 mg/mL; solubility ([7]; 5 °C, organic solvent or mixture, thermodynamic from solid, water concentration 2 v/v %, 5 °C, read-out: Solubility): 2.4 mg/mL; solubility ([7]; 5 °C, organic solvent or mixture, thermodynamic from solid, water concentration 6 v/v %, 5 °C, read-out: Solubility): 12.8 mg/mL; solubility ([7]; 12.5 °C, organic solvent or mixture, thermodynamic from solid, water concentration 3.5 v/v %, 12.5 °C, read-out: Solubility): 5.4 mg/mL; solubility ([7]; 12.5 °C, organic solvent or mixture, thermodynamic from solid, water concentration 8.5 v/v %, 12.5 °C, read-out: Solubility): 27.6 mg/mL; solubility ([7]; 25 °C, organic solvent or mixture, thermodynamic from solid, water concentration 0 v/v %, 25 °C, read-out: Solubility): 1.3 mg/mL; solubility ([7]; 25 °C, organic solvent or mixture, thermodynamic from solid, water concentration 2 v/v %, 25 °C, read-out: Solubility): 4.1 mg/mL; solubility ([7]; 25 °C, organic solvent or mixture, thermodynamic from solid, water concentration 6 v/v %, 25 °C, read-out: Solubility): 17.1 mg/mL; solubility ([7]; 25 °C, organic solvent or mixture, thermodynamic from solid, water concentration 10 v/v %, 25 °C, read-out: Solubility): 47.5 mg/mL; solubility ([7]; 37.5 °C, organic solvent or mixture, thermodynamic from solid, water concentration 3.5 v/v %, 37.5 °C, read-out: Solubility): 10 mg/mL; solubility ([7]; 37.5 °C, organic solvent or mixture, thermodynamic from solid, water concentration 8.5 v/v %, 37.5 °C, read-out: Solubility): 44.4 mg/mL; solubility ([7]; 45 °C, organic solvent or mixture, thermodynamic from solid, water concentration 2 v/v %, 45 °C, read-out: Solubility): 8.7 mg/mL; solubility ([7]; 45 °C, organic solvent or mixture, thermodynamic from solid, water concentration 6 v/v %, 45 °C, read-out: Solubility): 27.2 mg/mL; solubility ([7]; 45 °C, organic solvent or mixture, thermodynamic from solid, water concentration 10 v/v %, 45 °C, read-out: Solubility): 71.6 mg/mL; Thermodynamic relationship between forms I and II crystals [7]: enantiotropy; Relative stability of Form I versus Form X [8]: more stable than Form X regardless of temperature

Q: With `O=C(N[C@H]1CN2CCC1CC2)c1cc2cccc(Cl)c2s1` [Form II, (R)-7-chloro-N-(quinuclidin-3-yl)benzo[b]thiophene-2-carboxamide hydrochloride monohydrate] as the molecule, how does the Solubility in water ([1]; 25° C.) read?
A: 30 mg/mL

Q: And the Solubility in water ([1]; 37° C.)?
A: 54 mg/mL

Q: And the “XRD chart after compression” value [2]?
A: not changed

Q: What about the “Degradation products under photo storage conditions” value [3] of the same molecule?
A: no degradation products

Q: What about the “Channel water absorbed and desorbed” value (Hygroscopicity (DVS-1)) of the same molecule?
A: ca. 1 mol

Q: What about the “Water value increased and decreased by absorption and desorption” value (Hygroscopicity (DVS-1)) of the same molecule?
A: approximately 4%

Q: What about the Hygroscopicity (Hygroscopicity (DVS-1)) of the same molecule?
A: there was a hygroscopicity

Q: What about the “Degradation products under storage conditions” value [5] of the same molecule?
A: No degradation products

Q: What about the solubility ([7]; 5 °C, organic solvent or mixture, thermodynamic from solid, water concentration 10 v/v %, 5 °C, read-out: Solubility) of the same molecule?
A: 29.7 mg/mL

Q: What about the solubility ([7]; water concentration 2 v/v %, 5 °C, hydrochloride monohydrate) of the same molecule?
A: 2.6

Q: What about the solubility ([7]; water concentration 2 v/v %, 25 °C, hydrochloride monohydrate) of the same molecule?
A: 4.7

Q: What about the solubility ([7]; water concentration 3.5 v/v %, 12.5 °C, hydrochloride monohydrate) of the same molecule?
A: 5.7

Q: And the solubility ([7]; water concentration 6 v/v %, 5 °C, hydrochloride monohydrate)?
A: 11.2

Q: And the solubility ([7]; water concentration 6 v/v %, 25 °C, hydrochloride monohydrate)?
A: 16.7

Q: And the solubility ([7]; water concentration 6 v/v %, 45 °C, hydrochloride monohydrate)?
A: 29.6

Q: And the solubility ([7]; water concentration 8.5 v/v %, 12.5 °C, hydrochloride monohydrate)?
A: 25.1

Q: What about the solubility ([7]; water concentration 8.5 v/v %, 37.5 °C) of the same molecule?
A: 44.4

Q: What about the solubility ([7]; water concentration 10 v/v %, 25 °C, hydrochloride monohydrate) of the same molecule?
A: 44.6

Q: What about the solubility ([7]; water concentration 10 v/v %, 45 °C, hydrochloride monohydrate) of the same molecule?
A: 74.5

Q: And the “Thermodynamic relationship between forms I and II crystals” value [7]?
A: enantiotropy
